Measurements: the supplement of paper PMC10307832

Columns and labels:
Assay in all cases: relative viability (nuclei count vs DMSO), 5 days (fraction); higher = more cells survive
[1] = compound: CO[C@@H]1[C@H](N(C)C(=O)c2ccccc2)C[C@H]2O[C@]1(C)n1c3ccccc3c3c4c(c5c6ccccc6n2c5c31)C(=O)NC4 [Midostaurin] + CCNC(=O)c1noc(-c2cc(C(C)C)c(O)cc2O)c1-c1ccc(CN2CCOCC2)cc1 [Luminespib] (partner 0.01 µM)
Procedure, shortened: (§1)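 Nuclei were stained with Hoechst during a one-step fixation (final 0.05% Triton X-100, 1% formaldehyde, 1 ug/ml Hoechst) carried out 5 days after dosing, then counted on 4× images. The cells, lung cancer lines in 1536-well plates, had been dosed by pin tool the day after seeding with one drug alone or a fixed anchor-drug dose plus five library-drug doses (not always all listed) in √10 steps. Relative viability is the nuclei count in treated wells divided by that in vehicle wells, and each value is the median of duplicate plates.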

[2] = compound: COc1cc(-c2nn([C@H]3CC[C@H](N4CCN(C(C)=O)CC4)CC3)c3ncnc(N)c23)ccc1NC(=O)c1cc2ccccc2n1C + COc1cccc2cc(-c3nc([C@H]4CC[C@H](C(=O)O)CC4)n4ncnc(N)c34)[nH]c12 [OSI-027] (partner 0.5 µM)
Procedure, shortened: as §1

[3] = compound: COc1cc(-c2nn([C@H]3CC[C@H](N4CCN(C(C)=O)CC4)CC3)c3ncnc(N)c23)ccc1NC(=O)c1cc2ccccc2n1C + Cc1cc(Nc2cc(N3CCN(C)CC3)nc(Sc3ccc(NC(=O)C4CC4)cc3)n2)n[nH]1 [Tozasertib] (partner 0.1 µM)
Procedure, shortened: as §1

[4] = compound: COc1cc(-c2nn([C@H]3CC[C@H](N4CCN(C(C)=O)CC4)CC3)c3ncnc(N)c23)ccc1NC(=O)c1cc2ccccc2n1C + Cc1nc(NC(=O)N2CCC[C@H]2C(N)=O)sc1-c1ccnc(C(C)(C)C(F)(F)F)c1 [Alpelisib] (partner 2 µM)
Procedure, shortened: as §1

[5] = compound: COc1cc(-c2nn([C@H]3CC[C@H](N4CCN(C(C)=O)CC4)CC3)c3ncnc(N)c23)ccc1NC(=O)c1cc2ccccc2n1C + O=C(c1cc(Cc2n[nH]c(=O)c3ccccc23)ccc1F)N1CCN(C(=O)C2CC2)CC1 [Olaparib] (partner 8 µM)
Procedure, shortened: as §1

Row | Cell Line | relative viability ([1]; first compound 0.01 µM) | relative viability ([1]; first compound 0.03162 µM) | relative viability ([1]; first compound 0.1 µM) | relative viability ([1]; first compound 0.3162 µM) | relative viability ([2]; first compound 0.0128 µM) | relative viability ([2]; first compound 0.04048 µM) | relative viability ([2]; first compound 0.128 µM) | relative viability ([2]; first compound 1.28 µM) | relative viability ([3]; first compound 0.0128 µM) | relative viability ([3]; first compound 0.04048 µM) | relative viability ([3]; first compound 0.128 µM) | relative viability ([3]; first compound 1.28 µM) | relative viability ([4]; first compound 0.0128 µM) | relative viability ([4]; first compound 0.04048 µM) | relative viability ([4]; first compound 0.128 µM) | relative viability ([4]; first compound 1.28 µM) | relative viability ([5]; first compound 0.0128 µM) | relative viability ([5]; first compound 0.04048 µM) | relative viability ([5]; first compound 0.128 µM) | relative viability ([5]; first compound 1.28 µM)
1 | NCI-H2405 | 0.729 | 0.704 | 0.64 | 0.45 | 0.679 | 0.465 | 0.633 | 0.324 | 0.741 | 0.601 | 0.656 | 0.391 | 0.83 | 0.419 | 0.722 | 0.272 | 0.908 | 0.719 | 0.756 | 0.453
2 | NCI-H3122 | 0.093 | 0.104 | 0.0868 | 0.0981 | 0.992 | 0.333 | 0.969 | 0.847 | 0.396 | 0.342 | 0.343 | 0.454 | 0.753 | – | 0.772 | 0.537 | 0.683 | – | 0.64 | 0.621
3 | PC-3 [JPC-3] | 0.736 | 0.658 | 0.667 | 0.692 | 0.817 | 0.817 | 0.77 | 0.771 | 0.845 | 0.904 | 0.802 | 0.896 | 1.04 | 1.09 | 1.04 | 1.09 | 1.15 | 1.35 | 1.08 | 1.24
4 | PC-14 | 0.136 | 0.197 | 0.147 | 0.152 | 0.896 | 1.07 | 0.798 | 0.913 | 0.562 | 0.688 | 0.559 | 0.636 | 1.01 | 0.951 | 0.902 | 0.852 | 0.231 | 0.349 | 0.283 | 0.343
5 | RERF-LC-KJ | 1.29 | 1.49 | 1.14 | 1.17 | 0.634 | 0.536 | 0.581 | 0.569 | 0.51 | 0.522 | 0.401 | 0.424 | 0.811 | 0.717 | 0.555 | 0.654 | 1.03 | 0.946 | 0.928 | 0.941
6 | SK-LU-1 | 0.202 | 0.199 | 0.206 | 0.194 | 0.4 | 0.291 | 0.284 | 0.206 | 0.346 | 0.352 | 0.273 | 0.226 | 1.15 | 0.917 | 0.821 | 0.441 | 0.411 | 0.6 | 0.431 | 0.402
7 | SK-MES-1 | 0.785 | 0.804 | 0.733 | 0.336 | 0.685 | 0.665 | 0.583 | 0.562 | 0.906 | 1.01 | 0.827 | 0.936 | 0.972 | 0.872 | 0.789 | 0.668 | 0.79 | 0.873 | 0.672 | 0.587
8 | SW 1573 | 0.377 | 0.213 | 0.308 | 0.18 | 0.68 | 0.691 | 0.624 | 0.466 | 0.201 | 0.108 | 0.175 | 0.148 | 0.788 | 0.508 | 0.695 | 0.509 | 0.439 | 0.414 | 0.412 | 0.393
